Paper PMC3117672 (ChemMedChem, 2010)

Molecular target: mPTPB (Mycobacterium tuberculosis, UniProt I6WXK4)
Details: read-out: IC50 for mPTPB; pH 7

Chain of mPTPB (I6WXK4 whole entry, looked up): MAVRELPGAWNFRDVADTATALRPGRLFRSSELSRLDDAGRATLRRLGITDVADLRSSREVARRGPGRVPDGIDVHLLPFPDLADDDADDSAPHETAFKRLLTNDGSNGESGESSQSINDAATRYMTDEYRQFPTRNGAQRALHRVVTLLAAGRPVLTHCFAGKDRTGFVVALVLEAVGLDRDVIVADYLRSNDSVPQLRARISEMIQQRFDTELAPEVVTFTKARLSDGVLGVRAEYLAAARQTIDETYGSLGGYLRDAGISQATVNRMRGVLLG

Compound C#CCOc1c(C(=O)O)cc2cc(Cl)cc(OCC#C)c2c1Cl [Compound L5] has an IC50 of 75 µM.
